Paper PMC6272251, “Two New Phenolic Glucosides from Lagerstroemia speciosa” (Molecules, 2015)

Experiments:
[1] = test system: nitric oxide production in lipopolysaccharide-treated RAW264.7 cells; experiment: Inhibition of LPS-induced NO production in RAW264.7 cells (Griess reagent); type: cell-based; conditions: Mus musculus, RAW 264.7 cells, compounds 30 min then LPS 1.0 μg/mL for 24 h
Experimental: RAW264.7 cells were plated at 1 × 10^6 cells/mL and incubated for 18 h. After incubation, the cells were treated with Compounds 1–12 for 30 min and then continuously incubated with LPS (1.0 μg/mL) for 24 h. The inhibitory effects of the isolated compounds on NO production were evaluated by using the Griess reagent and an EIA kit to determine the NO levels, as described previously.

RAW264.7 cells = experiment: Cell viability test (MTT assay); type: cell-based; conditions: Mus musculus, RAW 264.7 cells, compounds 25 to 150 μM, 24 h
Experimental: RAW264.7 cells were plated at 1 × 10^6 cells/mL and incubated for 18 h followed by the addition of Compounds 1–12 to the cells (25 to 150 μM), and the cells were incubated for 24 h. The cytotoxicity was evaluated by an MTT (3-(4,5-dimethylthiazol-2-yl)-2,5-diphenyltetrazolium bromide) assay. The […] of MTT solution (10 mg/mL in phosphate buffered saline, pH 7.4) were added to the cells 3 h prior to the end of the culture period. The incubation was terminated by the addition of 15% sodium dodecyl sulfate to each well to solubilize the formazan. The absorbance was measured by a microplate reader at 570 nm (OD570-630).

Row | IC50 [1] [µM] | Compound | IC50 (RAW264.7 cells) [µM]
1 | 81.8 ± 1.3 | O=C(C=Cc1ccc(O)c(O)c1)OCC1OC(OCc2ccccc2)C(O)C(O)C1O [Compound 1, 1-O-benzyl-6-O-E-caffeoyl-β-D-glucopyranoside] | > 100
2 | 71.1 ± 1.9 | COc1cc(C(O)C(O)CO)ccc1OC1OC(COC(=O)C=Cc2ccc(O)c(O)c2)C(O)C(O)C1O [Compound 2, 1-O-(7S,8R)-guaiacylglycerol-(6-O-E-caffeoyl)-β-D-glucopyranoside] | 87.7 ± 3.5
3 | 69.5 ± 1.4 | O=C(C=Cc1ccc(O)c(O)c1)OCC1OC(OC(=O)C=Cc2ccc(O)c(O)c2)C(O)C(O)C1O [Compound 5, 1,6-di-O-E-caffeoyl-β-D-glucopyranoside] | > 100
4 | 70.7 ± 1.2 | O=C(C=Cc1ccc(O)c(O)c1)OC1OC(CO)C(O)C(O)C1O [Compound 8, 1-O-E-caffeoyl-β-D-glucopyranoside] | 84.8 ± 5

The next lines start with the compound.

Row | Compound | IC50 [1] [µM] | IC50 (RAW264.7 cells) [µM]
5 | O=c1c(O[C@@H]2O[C@H](CO)[C@H](O)[C@H](O)[C@H]2O)c(-c2ccc(O)c(O)c2)oc2cc(O)cc(O)c12 [Compound 3, quercetin-3-O-β-D-galactopyranoside] | 81.9 ± 1.9 | > 100
6 | O=C(C=Cc1ccc(O)c(O)c1)OCC1OC(Oc2c(-c3ccc(O)c(O)c3)oc3cc(O)cc(O)c3c2=O)C(O)C(O)C1O [Compound 4, quercetin-3-O-(6''-O-E-caffeoyl)-β-D-galactopyranoside] | 83.3 ± 0.9 | > 100
7 | COc1cc(CCCO)cc(OC)c1O[C@@H]1O[C@H](CO)[C@@H](O)[C@H](O)[C@H]1O [Compound 7, dihydrosyringin] | 76.2 ± 0.6 | > 100
8 | COc1c(O)cc2c(=O)oc3c(O)c(O)cc4c(=O)oc1c2c34 [Compound 10, 3-O-methylellagic acid] | 78 ± 2.3 | > 100
9 | O=C(/C=C/c1ccc(O)c(O)c1)O[C@@H]1C[C@](O)(C(=O)O)C[C@@H](O)[C@H]1O [Compound 11, chlorogenic acid] | 81.2 ± 0.7 | > 100
